Reference: paper PMC10620772, “Design, synthesis, and biological evaluation of new pyrimidine-5-carbonitrile derivatives as novel anti-cancer, dual EGFR^WT/COX-2 inhibitors with docking studies” (RSC Advances, 2023)

Tests used:
Type in all cases: cell-based, human
MDA-MB-231/ATCC = test: NCI60 antitumor screening; conditions: 10 μM one-dose
UACC-257 = test: NCI60 antitumor screening; conditions: 10 μM one-dose
SW-620 = test: NCI60 antitumor screening; conditions: 10 μM one-dose
MALME-3M = test: NCI60 antitumor screening; conditions: 10 μM one-dose
COLO 205 = test: NCI60 antitumor screening; conditions: 10 μM one-dose
RXF 393 = test: NCI60 antitumor screening; conditions: 10 μM one-dose
SK-OV-3 = test: NCI60 antitumor screening; conditions: 10 μM one-dose
SK-MEL-5 = test: NCI60 antitumor screening; conditions: 10 μM one-dose
HL-60(TB) = test: NCI60 antitumor screening; conditions: 10 μM one-dose
TK-10 = test: NCI60 antitumor screening; conditions: 10 μM one-dose
MDA-MB-468 = test: NCI60 antitumor screening; conditions: 10 μM one-dose
NCI-H460 = test: NCI60 antitumor screening; conditions: 10 μM one-dose
SK-MEL-2 = test: NCI60 antitumor screening; conditions: 10 μM one-dose
SNB-75 = test: NCI60 antitumor screening; conditions: 10 μM one-dose
HT29 = test: NCI60 antitumor screening; conditions: 10 μM one-dose
SK-MEL-28 = test: NCI60 antitumor screening; conditions: 10 μM one-dose
NCI-H322M = test: NCI60 antitumor screening; conditions: 10 μM one-dose
T-47D = test: NCI60 antitumor screening; conditions: 10 μM one-dose
SF-539 = test: NCI60 antitumor screening; conditions: 10 μM one-dose
A549/ATCC = test: NCI60 antitumor screening; conditions: 10 μM one-dose
RPMI-8226 = test: NCI60 antitumor screening; conditions: 10 μM one-dose
OVCAR-3 = test: NCI60 antitumor screening; conditions: 10 μM one-dose
M14 = test: NCI60 antitumor screening; conditions: 10 μM one-dose
A498 = test: NCI60 antitumor screening; conditions: 10 μM one-dose
CCRF-CEM = test: NCI60 antitumor screening; conditions: 10 μM one-dose
SF-295 = test: NCI60 antitumor screening; conditions: 10 μM one-dose
OVCAR-4 = test: NCI60 antitumor screening; conditions: 10 μM one-dose
NCI-H522 = test: NCI60 antitumor screening; conditions: 10 μM one-dose
HCT-15 = test: NCI60 antitumor screening; conditions: 10 μM one-dose
MOLT-4 = test: NCI60 antitumor screening; conditions: 10 μM one-dose
NCI/ADR-RES = test: NCI60 antitumor screening; conditions: 10 μM one-dose
CAKI-1 = test: NCI60 antitumor screening; conditions: 10 μM one-dose
NCI60 cell lines panel = test: NCI60 antitumor screening, full panel; conditions: 10 μM one-dose, mean over NCI60
In short: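 Single-concentration screen at 10 μM across the NCI60 panel (leukaemia, NSCLC, colon, CNS, melanoma, ovarian, renal, prostate, breast). Results are expressed as percent growth inhibition (GI%) of treated lines.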

UACC-62 = test: NCI60 antitumor screening; conditions: 10 μM one-dose
SNB-19 = test: NCI60 antitumor screening; conditions: 10 μM one-dose
MCF7 = test: NCI60 antitumor screening; conditions: 10 μM one-dose
786–0 = test: NCI60 antitumor screening; conditions: 10 μM one-dose
HS 578T = test: NCI60 antitumor screening; conditions: 10 μM one-dose
SF-268 = test: NCI60 antitumor screening; conditions: 10 μM one-dose
U251 = test: NCI60 antitumor screening; conditions: 10 μM one-dose
SR = test: NCI60 antitumor screening; conditions: 10 μM one-dose
HCT-116 = test: NCI60 antitumor screening; conditions: 10 μM one-dose
SN12C = test: NCI60 antitumor screening; conditions: 10 μM one-dose
IGROV1 = test: NCI60 antitumor screening; conditions: 10 μM one-dose
HOP-62 = test: NCI60 antitumor screening; conditions: 10 μM one-dose
NCI-H23 = test: NCI60 antitumor screening; conditions: 10 μM one-dose
KM12 = test: NCI60 antitumor screening; conditions: 10 μM one-dose
PC-3 = test: NCI60 antitumor screening; conditions: 10 μM one-dose
UO-31 = test: NCI60 antitumor screening; conditions: 10 μM one-dose
DU-145 = test: NCI60 antitumor screening; conditions: 10 μM one-dose
MDA-MB-435 = test: NCI60 antitumor screening; conditions: 10 μM one-dose
OVCAR-8 = test: NCI60 antitumor screening; conditions: 10 μM one-dose
ACHN = test: NCI60 antitumor screening; conditions: 10 μM one-dose
LOX IMVI = test: NCI60 antitumor screening; conditions: 10 μM one-dose
HOP-92 = test: NCI60 antitumor screening; conditions: 10 μM one-dose
OVCAR-5 = test: NCI60 antitumor screening; conditions: 10 μM one-dose
K-562 = test: NCI60 antitumor screening; conditions: 10 μM one-dose
BT-549 = test: NCI60 antitumor screening; conditions: 10 μM one-dose
EKVX = test: NCI60 antitumor screening; conditions: 10 μM one-dose
HCC-2998 = test: NCI60 antitumor screening; conditions: 10 μM one-dose
NCI-H226 = test: NCI60 antitumor screening; conditions: 10 μM one-dose

In the case of N#Cc1c(Cl)nc(SCc2ccc(F)cc2)nc1-c1ccc(F)cc1 [3b, 4-Chloro-2-((4-fluorobenzyl)thio)-6-(4-fluorophenyl) pyrimidine-5-carbonitrile], the GI% (MDA-MB-231/ATCC) is reported as “— (GI% < 10)”, the GI% (UACC-257) is reported as “— (GI% < 10)” and the GI% (SW-620) is reported as “— (GI% < 10)”. For the same compound, the GI% (MALME-3M) was “— (GI% < 10)”, the GI% (COLO 205) was “— (GI% < 10)” and the GI% (RXF 393) was 10.29%. For the same compound, the GI% (SK-OV-3) was “— (GI% < 10)”, the GI% (SK-MEL-5) was 13.82% and the GI% (HL-60(TB)) was 49.83%. The GI% (TK-10) was “— (GI% < 10)”, the GI% (MDA-MB-468) was “— (GI% < 10)” and the GI% (NCI-H460) was “— (GI% < 10)”. The GI% (SK-MEL-2) was “— (GI% < 10)”, the GI% (SNB-75) was “— (GI% < 10)” and the GI% (HT29) was 13.44%. The GI% (SK-MEL-28) was “— (GI% < 10)”, the GI% (NCI-H322M) was “— (GI% < 10)” and the GI% (T-47D) was 33.18%. The GI% (SF-539) was “— (GI% < 10)”, the GI% (A549/ATCC) was “— (GI% < 10)” and the GI% (RPMI-8226) was “— (GI% < 10)”. The GI% (OVCAR-3) was “— (GI% < 10)”, the GI% (M14) was “— (GI% < 10)” and the GI% (A498) was “— (GI% < 10)”. The GI% (CCRF-CEM) was 13.30%, the GI% (SF-295) was 10.01% and the GI% (OVCAR-4) was “— (GI% < 10)”. For the same compound, the GI% (NCI-H522) was 25.38%, the GI% (HCT-15) was 13.00% and the GI% (MOLT-4) was 19.35%. For the same compound, the GI% (NCI/ADR-RES) was 13.45%, the GI% (CAKI-1) was “— (GI% < 10)” and the “Mean GI%” value (NCI60 cell lines panel) was “— (GI% < 10)”. For the same compound, the GI% (UACC-62) was 13.95%, the GI% (SNB-19) was “— (GI% < 10)” and the GI% (MCF7) was 17.40%. The GI% (786–0) was “— (GI% < 10)”, the GI% (HS 578T) was “— (GI% < 10)” and the GI% (SF-268) was “— (GI% < 10)”. The GI% (U251) was “— (GI% < 10)”, the GI% (SR) was “— (GI% < 10)” and the GI% (HCT-116) was 18.51%. The GI% (SN12C) was 19.06%, the GI% (IGROV1) was “— (GI% < 10)” and the GI% (HOP-62) was “— (GI% < 10)”. For the same compound, the GI% (NCI-H23) was “— (GI% < 10)”, the GI% (KM12) was “— (GI% < 10)” and the GI% (PC-3) was “— (GI% < 10)”. The GI% (UO-31) was 12.89%, the GI% (DU-145) was “— (GI% < 10)” and the GI% (MDA-MB-435) was “— (GI% < 10)”. For the same compound, the GI% (OVCAR-8) was 10.81%, the GI% (ACHN) was “— (GI% < 10)” and the GI% (LOX IMVI) was “— (GI% < 10)”. The GI% (HOP-92) was 25.21%, the GI% (OVCAR-5) was “— (GI% < 10)” and the GI% (K-562) was 30.20%. For the same compound, the GI% (BT-549) was “— (GI% < 10)”, the GI% (EKVX) was 10.91% and the GI% (HCC-2998) was “— (GI% < 10)”. It also gave a GI% (NCI-H226) of 28.68%.

Cc1ccc(CSc2nc(Cl)c(C#N)c(-c3ccc(F)cc3)n2)cc1 [3d, 4-Chloro-6-(4-fluorophenyl)-2-((4-methylbenzyl)thio)pyrimidine-5-carbonitrile] was tested, and the GI% (MDA-MB-231/ATCC) was “— (GI% < 10)”, the GI% (UACC-257) was “— (GI% < 10)” and the GI% (SW-620) was 11.21%. For the same compound, the GI% (MALME-3M) was “— (GI% < 10)”, the GI% (COLO 205) was “— (GI% < 10)” and the GI% (RXF 393) was 12.49%. For the same compound, the GI% (SK-OV-3) was “— (GI% < 10)”, the GI% (SK-MEL-5) was 15.98% and the GI% (HL-60(TB)) was 51.77%. The GI% (TK-10) was “— (GI% < 10)”, the GI% (MDA-MB-468) was “— (GI% < 10)” and the GI% (NCI-H460) was “— (GI% < 10)”. For the same compound, the GI% (SK-MEL-2) was “— (GI% < 10)”, the GI% (SNB-75) was “— (GI% < 10)” and the GI% (HT29) was 51.51%. The GI% (SK-MEL-28) was “— (GI% < 10)”, the GI% (NCI-H322M) was “— (GI% < 10)” and the GI% (T-47D) was 46.84%. For the same compound, the GI% (SF-539) was 15.58%, the GI% (A549/ATCC) was 16.81% and the GI% (RPMI-8226) was 25.03%. For the same compound, the GI% (OVCAR-3) was “— (GI% < 10)”, the GI% (M14) was “— (GI% < 10)” and the GI% (A498) was “— (GI% < 10)”. The GI% (CCRF-CEM) was 29.71%, the GI% (SF-295) was 11.51% and the GI% (OVCAR-4) was 14.97%. For the same compound, the GI% (NCI-H522) was 29.73%, the GI% (HCT-15) was 24.97% and the GI% (MOLT-4) was 29.08%. For the same compound, the GI% (NCI/ADR-RES) was 14.93%, the GI% (CAKI-1) was 16.99% and the “Mean GI%” value (NCI60 cell lines panel) was 12.62%. The GI% (UACC-62) was 17.58%, the GI% (SNB-19) was “— (GI% < 10)” and the GI% (MCF7) was 12.55%. The GI% (786–0) was 12.30%, the GI% (HS 578T) was “— (GI% < 10)” and the GI% (SF-268) was 12.95%. For the same compound, the GI% (U251) was 15.75%, the GI% (SR) was “— (GI% < 10)” and the GI% (HCT-116) was 25.73%. The GI% (SN12C) was 27.59%, the GI% (IGROV1) was “— (GI% < 10)” and the GI% (HOP-62) was “— (GI% < 10)”. For the same compound, the GI% (NCI-H23) was “— (GI% < 10)”, the GI% (KM12) was 19.05% and the GI% (PC-3) was 35.47%. The GI% (UO-31) was 17.01%, the GI% (DU-145) was 18.41% and the GI% (MDA-MB-435) was “— (GI% < 10)”. For the same compound, the GI% (OVCAR-8) was “— (GI% < 10)”, the GI% (ACHN) was “— (GI% < 10)” and the GI% (LOX IMVI) was “— (GI% < 10)”. The GI% (HOP-92) was 34.25%, the GI% (OVCAR-5) was “— (GI% < 10)” and the GI% (K-562) was 42.83%. The GI% (BT-549) was 18.08%, the GI% (EKVX) was 20.92% and the GI% (HCC-2998) was “— (GI% < 10)”. The GI% (NCI-H226) was 37.93%.
